Experimental data: patent US9198419B2, “Use of pro-fungicides of UK-2A for control of black sigatoka” (Dow AgroSciences LLC, priority 2012, dated 2015)

Test system: Black Sigatoka on Bananas
Test: Assessment of disease in field plots: Black Sigatoka on banana plants, natural inoculation
Format: in vivo, Mycosphaerella fijiensis
Conditions: for Disease Severity (AUDPC): 61 Day After Application, Area Under Disease Progression Curve, banana field plots; for Total Number of Functional Leaves: bananas
Protocol: Aliquots of a 10% SC formulation of Compound I were diluted into water and mixed with Spraytex CT mineral oil (7 L/Ha) to achieve active ingredient application rates of 50, 100, 150, 200, 300 & 400 g a.i./Ha. These treatments were delivered to banana plants in field plots at an application volume of 23 L/Ha, using a Solo back-pack pump sprayer fitted with a Micronair AU8000 atomizer. A total of five applications were made at 10 day intervals. Experimental design was based on a randomized complete block, and 4 replications. Disease symptoms resulted from natural inoculation and epidemic development. Total experimental plot size was 96 m^2. Efficacy was determined by both percent visual infection and the number of functional leaves.

## COc1ccnc(C(=O)N[C@H]2COC(=O)[C@H](Cc3ccccc3)[C@@H](OC(=O)C(C)C)[C@H](C)OC2=O)c1OCOC(=O)C(C)C [Compound I]
Compound I 50 ppm
  Disease Severity (AUDPC): 29
Compound I 100 ppm
  Disease Severity (AUDPC): 34
Compound I 150 ppm
  Disease Severity (AUDPC): 29
Compound I 200 ppm
  Disease Severity (AUDPC): 28
Compound I 300 ppm
  Disease Severity (AUDPC): 35
Rate 50 g ai/ha, Week 10
  Total Number of Functional Leaves: 12.8
Rate 50 g ai/ha, Week 13
  Total Number of Functional Leaves: 13.0
Rate 50 g ai/ha, Week 15
  Total Number of Functional Leaves: 14.7
Rate 100 g ai/ha, Week 10
  Total Number of Functional Leaves: 9.3
Rate 100 g ai/ha, Week 13
  Total Number of Functional Leaves: 12.7
Rate 100 g ai/ha, Week 15
  Total Number of Functional Leaves: 14.1
Rate 200 g ai/ha, Week 10
  Total Number of Functional Leaves: 8.6
Rate 200 g ai/ha, Week 13
  Total Number of Functional Leaves: 12.3
Rate 200 g ai/ha, Week 15
  Total Number of Functional Leaves: 14.0
Rate 400 g ai/ha, Week 10
  Total Number of Functional Leaves: 8.7
Rate 400 g ai/ha, Week 13
  Total Number of Functional Leaves: 12.7
Rate 400 g ai/ha, Week 15
  Total Number of Functional Leaves: 14.0
